Source: patent US11884683B2, “Tricyclic heterocycle compounds useful as HIV integrase inhibitors” (Merck Sharp & Dohme LLC, priority 2018, dated 2024)
pIC50: −log10 of the molar value.

System: HIV-1 (H9/IIIB strain)
Assay: Multiple round HIV-1 infection assay in MT4-GFP cells (wild type cell assay, Viking)
Assay type: cell-based
Conditions: 0% NHS condition; MT4-GFP cells infected with HIV-1 H9/IIIB; inhibition of reproductive ratio R0, ~48 h and ~72 h post-infection; read-out: WILD TYPE CELL ASSAY Viking IP (0% NHS)
Method: Assessing Antiviral Potency in a Multiple Round HIV-1 Infection Assay
The antiviral activity of the Examples herein was assessed in an assay that measures the rate of replication of HIV in cell culture, and performed according to the following procedure. HIV-1 replication was monitored using MT4-gag-GFP clone D3 (hereafter designated MT4-GFP), which are MT-4 cells modified to harbor a GFP reporter gene, the expression of which is dependent on the HIV-1 expressed proteins tat and rev. Productive infection of an MT4-GFP cell with HIV-1 results in GFP expression approximately 24 h post-infection. MT4-GFP cells were maintained at 37° C./5% CO2/90% relative humidity in RPMI 1640 supplemented with 10% fetal bovine serum, 100 U/ml penicillin/streptomycin, and 400 μg/ml G418 to maintain the reporter gene. For infections, MT4-GFP cells were placed in the same medium lacking G418 and infected overnight with HIV-1 (H9/IIIB strain) virus at an approximate multiplicity of infection of 0.01 in the same incubation conditions. Cells were then washed and re-suspended in either RPMI 1640 at 2×10^5 cells/mL (0% NHS condition) or 100% normal human serum (NHS) at 2×10^5 cells/mL (100% NHS condition). Compound plates were prepared by dispensing compounds dissolved in DMSO into wells of 384 well poly-D-lysine-coated plates (0.2 μl/well) using an ECHO acoustic dispenser. Each compound was tested in a 10-point serial 3-fold dilution (typical final concentrations: 1050 nM-0.05 nM for 0% NHS condition or […]-2.13 nM for 100% NHS condition). Controls included no inhibitor (DMSO only) and a combination of three antiviral agents (efavirenz, indinavir, an in-house integrase strand transfer inhibitor at final concentrations of […] each). Cells were added ([…]) to compound plates and the infected cells were maintained at 37° C./5% CO2/90% relative humidity.
Infected cells were quantified at two time points, ˜48 h and ˜72 h post-infection, by counting the number of green cells in each well using an Acumen eX3 scanner. The increase in the number of green cells over ˜24 h period gives the reproductive ratio, RO, which is typically 5-15 and has been shown experimentally to be in logarithmic phase (data not shown). Inhibition of R0 is calculated for each well, and IC50s determined by non-linear 4-parameter curve fitting.

| Structure (SMILES) | pIC50 |
| --- | --- |
| CCN1CN2CC(O)c3c(C(=O)NCc4c(F)ccc(F)c4F)c(=O)c(O)c(n32)C1=O (stereo not shown) [Compound 48] | 8.64 |
| CCN1CN2CC(O)c3c(C(=O)NCc4ccc(F)c(Cl)c4F)c(=O)c(O)c(n32)C1=O (stereo not shown) [Compound 49] | 8.70 |
| CCN1CN2CC(O)c3c(C(=O)NCc4ccc(F)c(Cl)c4F)c(=O)c(O)c(n32)C1=O (stereo not shown) [Compound 50] | 8.38 |
| CCN1CN2CC(O)c3c(C(=O)NCc4cccc(Cl)c4F)c(=O)c(O)c(n32)C1=O (stereo not shown) [Compound 51] | 8.68 |
| CCN1CN2CC(O)c3c(C(=O)NCc4cccc(Cl)c4F)c(=O)c(O)c(n32)C1=O (stereo not shown) [Compound 52] | 8.09 |
| CCN1CN2CC(O)c3c(C(=O)NCc4c(F)ccc(Cl)c4F)c(=O)c(O)c(n32)C1=O (stereo not shown) [Compound 53] | 8.96 |
| CCN1CN2CC(O)c3c(C(=O)NCc4c(F)ccc(Cl)c4F)c(=O)c(O)c(n32)C1=O (stereo not shown) [Compound 54] | 8.33 |
| CCN1CN2CC(O)c3c(C(=O)NCc4c(F)cc(F)cc4F)c(=O)c(O)c(n32)C1=O (stereo not shown) [Compound 56] | 8.54 |
| CCN1CN2CC(O)c3c(C(=O)NCc4ccc(F)cc4F)c(=O)c(O)c(n32)C1=O (stereo not shown) [Compound 58] | 8.40 |
| CCN1CN2CC(O)c3c(C(=O)NCc4ccc(F)c(F)c4F)c(=O)c(O)c(n32)C1=O (stereo not shown) [Compound 60] | 8.55 |
| CCN1CN2CC(O)c3c(C(=O)NCc4ccc(F)cc4)c(=O)c(O)c(n32)C1=O (stereo not shown) [Compound 61] | 8.72 |
| CCN1CN2CC(O)c3c(C(=O)NCc4ccc(F)cc4)c(=O)c(O)c(n32)C1=O (stereo not shown) [Compound 62] | 8.28 |
| CCN1CN2CC(O)c3c(C(=O)NCc4ccccc4F)c(=O)c(O)c(n32)C1=O (stereo not shown) [Compound 63] | 8.80 |
| CCN1CN2CC(O)c3c(C(=O)NCc4ccccc4F)c(=O)c(O)c(n32)C1=O (stereo not shown) [Compound 64] | 8.23 |
| CCN1C(=O)c2c(O)c(=O)c(C(=O)NCc3c(F)ccc(Cl)c3F)c3n2N(CC3O)C1C (stereo not shown) [Compound 72] | 8.64 |
| CCN1C(=O)c2c(O)c(=O)c(C(=O)NCc3ccc(C(F)F)cc3)c3n2N(CC3O)C1C (stereo not shown) [Compound 75] | 7.46 |
| CCN1C(=O)c2c(O)c(=O)c(C(=O)NCc3ccc(C(F)F)cc3)c3n2N(CC3O)C1C (stereo not shown) [Compound 76] | 7.06 |
| CCN1C(=O)c2c(O)c(=O)c(C(=O)NCc3ccc(C(F)(F)F)cc3)c3n2N(CC3O)C1C (stereo not shown) [Compound 79] | 6.99 |
| CCN1C(=O)c2c(O)c(=O)c(C(=O)NCc3ccc(C(F)(F)F)cc3)c3n2N(CC3O)C1C (stereo not shown) [Compound 80] | 6.66 |
| CCN1C(=O)c2c(O)c(=O)c(C(=O)NCc3c(F)ccc(F)c3F)c3n2N(CC3O)C1C (stereo not shown) [Compound 84] | 8.68 |
| CCN1C(=O)c2c(O)c(=O)c(C(=O)NCc3ccc(F)cc3)c3n2N(CC3O)C1C (stereo not shown) [Compound 88] | 8.54 |
| CCN1C(=O)c2c(O)c(=O)c(C(=O)NCc3ccc(F)cc3F)c3n2N(CC3O)C1C (stereo not shown) [Compound 92] | 8.77 |
| CN1C(=O)c2c(O)c(=O)c(C(=O)NCc3ccc(F)cc3F)c3n2N(CC3O)C12CCOC2 (stereo not shown) [Compound 114] | 8.72 |
| CN1C(=O)c2c(O)c(=O)c(C(=O)NCc3c(F)ccc(Cl)c3F)c3n2N(CC3O)C12CCOC2 (stereo not shown) [Compound 118] | 8.80 |

Same assay, conditions: Human immunodeficiency virus 1, IIIB, 0% NHS condition; MT4-GFP cells infected with HIV-1 H9/IIIB; inhibition of reproductive ratio R0, ~48 h and ~72 h post-infection; read-out: WILD TYPE CELL ASSAY Viking IP (0% NHS)

| Structure (SMILES) | pIC50 |
| --- | --- |
| CCN1CN2CC(O)c3c(C(=O)NCc4c(F)ccc(F)c4F)c(=O)c(O)c(n32)C1=O (stereo not shown) [Compound 47] | 8.55 |
| CCN1CN2CC(O)c3c(C(=O)NCc4c(F)cc(F)cc4F)c(=O)c(O)c(n32)C1=O (stereo not shown) [Compound 55] | 8.80 |
| CCN1CN2CC(O)c3c(C(=O)NCc4ccc(F)cc4F)c(=O)c(O)c(n32)C1=O (stereo not shown) [Compound 57] | 8.62 |
| CCN1CN2CC(O)c3c(C(=O)NCc4ccc(F)c(F)c4F)c(=O)c(O)c(n32)C1=O (stereo not shown) [Compound 59] | 8.60 |
| CCN1C(=O)c2c(O)c(=O)c(C(=O)NCc3c(F)ccc(Cl)c3F)c3n2N(CC3O)C1C (stereo not shown) [Compound 71] | 8.43 |
| CCN1C(=O)c2c(O)c(=O)c(C(=O)NCc3c(F)ccc(F)c3F)c3n2N(CC3O)C1C (stereo not shown) [Compound 83] | 8.60 |
| CCN1C(=O)c2c(O)c(=O)c(C(=O)NCc3ccc(F)cc3)c3n2N(CC3O)C1C (stereo not shown) [Compound 87] | 8.38 |
| CCN1C(=O)c2c(O)c(=O)c(C(=O)NCc3ccc(F)cc3F)c3n2N(CC3O)C1C (stereo not shown) [Compound 91] | 8.48 |
| CN1C(=O)c2c(O)c(=O)c(C(=O)NCc3ccc(F)cc3F)c3n2N(CC3O)C12CCOC2 (stereo not shown) [Compound 113] | 8.82 |
| CN1C(=O)c2c(O)c(=O)c(C(=O)NCc3c(F)ccc(Cl)c3F)c3n2N(CC3O)C12CCOC2 (stereo not shown) [Compound 117] | 8.74 |
